According to patent US9717775B2 (priority 2006, dated 2017):

Experiments:
α1β1δε nAChR (muscle) = α1β1δε nAChR (muscle) (Homo sapiens, UniProt P02708+P11230+Q04844+Q07001); assay type: cell-based
α9α10 nAChR = α9α10 nAChR (Rattus norvegicus, UniProt P43144+Q9JLB5); assay type: cell-based
[1] = tested on: CCI-induced mechanical hypersensitivity; design: species or system male Sprague-Dawley rats; conditions: rat, in vivo

Chain of α1β1δε nAChR (muscle) (P02708 21-457 limits assumed): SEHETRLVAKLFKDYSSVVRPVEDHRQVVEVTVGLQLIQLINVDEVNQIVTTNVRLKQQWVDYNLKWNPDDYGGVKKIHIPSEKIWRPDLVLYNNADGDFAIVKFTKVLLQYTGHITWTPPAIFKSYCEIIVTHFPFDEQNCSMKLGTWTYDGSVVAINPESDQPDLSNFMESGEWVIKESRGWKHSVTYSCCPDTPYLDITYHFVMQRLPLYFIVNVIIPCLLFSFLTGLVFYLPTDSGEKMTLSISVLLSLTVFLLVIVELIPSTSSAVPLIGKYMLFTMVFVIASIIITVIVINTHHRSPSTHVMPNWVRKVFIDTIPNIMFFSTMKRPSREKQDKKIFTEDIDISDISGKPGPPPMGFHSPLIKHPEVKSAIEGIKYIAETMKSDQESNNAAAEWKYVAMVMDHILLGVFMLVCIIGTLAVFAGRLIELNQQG
Chain of α1β1δε nAChR (muscle) (P11230 24-501 limits assumed): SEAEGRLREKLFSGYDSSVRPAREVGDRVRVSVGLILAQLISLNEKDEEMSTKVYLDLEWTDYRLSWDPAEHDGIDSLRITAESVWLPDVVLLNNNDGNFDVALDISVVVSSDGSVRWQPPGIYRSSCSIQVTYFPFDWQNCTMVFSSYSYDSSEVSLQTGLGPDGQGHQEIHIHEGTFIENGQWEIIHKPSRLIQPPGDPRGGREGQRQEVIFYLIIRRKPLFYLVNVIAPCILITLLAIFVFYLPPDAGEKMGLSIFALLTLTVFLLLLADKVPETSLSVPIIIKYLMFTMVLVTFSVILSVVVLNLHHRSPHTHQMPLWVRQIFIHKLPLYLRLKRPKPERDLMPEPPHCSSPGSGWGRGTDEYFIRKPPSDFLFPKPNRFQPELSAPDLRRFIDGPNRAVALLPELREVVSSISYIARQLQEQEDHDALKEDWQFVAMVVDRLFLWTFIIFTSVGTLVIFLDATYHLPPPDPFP
Chain of α1β1δε nAChR (muscle) (Q07001 22-517 limits assumed): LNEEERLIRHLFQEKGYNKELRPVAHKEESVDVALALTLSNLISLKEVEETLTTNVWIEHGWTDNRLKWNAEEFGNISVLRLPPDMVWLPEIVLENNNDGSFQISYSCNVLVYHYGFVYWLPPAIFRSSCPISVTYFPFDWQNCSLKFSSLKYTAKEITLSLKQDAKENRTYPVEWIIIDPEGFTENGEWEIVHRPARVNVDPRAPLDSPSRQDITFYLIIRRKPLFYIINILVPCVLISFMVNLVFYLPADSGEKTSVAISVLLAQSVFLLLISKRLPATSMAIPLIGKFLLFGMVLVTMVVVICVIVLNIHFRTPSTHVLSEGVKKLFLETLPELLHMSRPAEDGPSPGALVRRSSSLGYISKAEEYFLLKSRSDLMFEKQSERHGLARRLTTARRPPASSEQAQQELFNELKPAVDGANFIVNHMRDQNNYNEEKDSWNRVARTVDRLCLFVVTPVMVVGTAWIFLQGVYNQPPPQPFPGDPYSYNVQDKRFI
Chain of α1β1δε nAChR (muscle) (Q04844 21-493 limits assumed): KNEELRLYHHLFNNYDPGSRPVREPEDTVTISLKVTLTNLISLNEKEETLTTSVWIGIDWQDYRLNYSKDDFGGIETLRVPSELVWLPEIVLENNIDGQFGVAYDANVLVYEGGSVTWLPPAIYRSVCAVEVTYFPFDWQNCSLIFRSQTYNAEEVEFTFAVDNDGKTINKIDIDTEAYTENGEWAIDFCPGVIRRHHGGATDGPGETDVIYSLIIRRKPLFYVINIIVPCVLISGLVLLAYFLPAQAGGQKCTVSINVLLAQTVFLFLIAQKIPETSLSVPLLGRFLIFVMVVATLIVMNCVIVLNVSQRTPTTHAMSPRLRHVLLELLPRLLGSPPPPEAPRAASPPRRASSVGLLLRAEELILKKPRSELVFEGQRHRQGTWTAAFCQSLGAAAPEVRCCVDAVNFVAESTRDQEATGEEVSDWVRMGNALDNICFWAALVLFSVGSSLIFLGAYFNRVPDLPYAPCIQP
Chain of α9α10 nAChR (P43144 26-479 limits assumed): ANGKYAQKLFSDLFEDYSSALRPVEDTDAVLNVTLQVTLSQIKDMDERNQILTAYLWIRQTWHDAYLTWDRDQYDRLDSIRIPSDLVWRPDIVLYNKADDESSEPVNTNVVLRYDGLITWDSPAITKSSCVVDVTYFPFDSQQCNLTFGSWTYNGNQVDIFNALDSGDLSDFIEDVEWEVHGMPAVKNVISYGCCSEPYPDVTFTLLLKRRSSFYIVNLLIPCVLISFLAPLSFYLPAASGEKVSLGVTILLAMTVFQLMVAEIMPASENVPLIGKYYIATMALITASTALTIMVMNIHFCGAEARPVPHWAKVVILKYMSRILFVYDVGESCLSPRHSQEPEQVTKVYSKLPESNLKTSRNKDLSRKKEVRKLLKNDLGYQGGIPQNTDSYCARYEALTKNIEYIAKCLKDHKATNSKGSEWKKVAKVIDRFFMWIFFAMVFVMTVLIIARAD
Chain of α9α10 nAChR (Q9JLB5 25-447 limits assumed): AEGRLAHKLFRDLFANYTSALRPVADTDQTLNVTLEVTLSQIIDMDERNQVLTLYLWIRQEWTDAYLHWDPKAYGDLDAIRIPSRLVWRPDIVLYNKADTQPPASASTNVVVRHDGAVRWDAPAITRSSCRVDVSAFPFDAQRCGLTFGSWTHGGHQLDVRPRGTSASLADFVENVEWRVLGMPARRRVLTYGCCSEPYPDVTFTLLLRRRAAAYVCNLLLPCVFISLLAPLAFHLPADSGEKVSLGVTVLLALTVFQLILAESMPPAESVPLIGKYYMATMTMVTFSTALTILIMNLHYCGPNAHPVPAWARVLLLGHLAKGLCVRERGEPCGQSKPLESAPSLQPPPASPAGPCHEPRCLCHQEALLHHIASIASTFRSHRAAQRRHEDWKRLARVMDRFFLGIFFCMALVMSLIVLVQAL

How did the Hill slope (α1β1δε nAChR (muscle)) turn out when α-conotoxin RgIA was run?
Its Hill slope is 0.931±0.40.

And the IC50 (α1β1δε nAChR (muscle))?
The IC50 was 16.1 µM.

What about the Hill slope (α9α10 nAChR) of the same substance?
The Hill slope was 1.13±0.11.

And the IC50 (α9α10 nAChR)?
The IC50 was 0.0048 µM.

What about the “increase of paw withdrawal thresholds ipsilateral to sciatic nerve ligation” value [1] of the same substance?
The value was 65±17%.

And the “time to significant increase of PWT ipsilateral to CCI” value [1]?
The value was 3 to 4 h.
